Measured values published in patent US9434738B2, “Macrocyclic benzofuran and azabenzofuran compounds for the treatment of hepatitis C” (BRISTOL-MYERS SQUIBB COMPANY, priority 2013, dated 2016).
Read-outs that look alike come from different tables or passages of the source.

Tests used:
[1] = system: genotype 1b HCV replicon in Huh-7 cells; assay: HCV replicon luciferase assay, genotype 1b; type: cell-based; conditions: Hepatitis C virus, 72 h, Huh-7, Renilla luciferase, 3 days
Method: Cell lines. The cell lines used to evaluate compounds consist of a human hepatocyte derived cell line (Huh-7) that constitutively expresses a genotype 1a or 1b HCV replicon containing a Renilla luciferase reporter gene. These cells were maintained in Dulbecco's modified Eagle medium (DMEM) containing 10% FBS, 100 U/mL penicillin/streptomycin and 1.0 mg/mL G418.
HCV Replicon Luciferase Assay.
To evaluate compound efficacy, HCV replicon cells were seeded in 96-well plates in DMEM containing 10% FBS at a cell density of 10^4/well. Following incubation at 37° C. overnight, compounds serially diluted in DMSO were added to the cell plates. Alternatively, titrated compounds were transferred to sterile 384-well tissue-culture treated plates and the plates seeded with 50 μL of cells at a density of 2.4×10^3 cells/well in DMEM containing 4% FCS (final DMSO concentration at 0.5%). After 3 days incubation at 37° C., cells were analyzed for Renilla Luciferase activity using the EnduRen substrate (Promega cat #E6485) according to the manufacturer's directions. Briefly, the EnduRen substrate was diluted in DMEM and then added to the plates to a final concentration of 7.5 μM. The plates were incubated for at least 1 h at 37° C. then read on a TopCount NXT Microplate Scintillation and Luminescence Counter (Packard) or Viewlux Imager (PerkinElmer) using a luminescence program. The 50% effective concentration (EC50) was calculated using the exponential form of the median effect equation where EC50=100−[(δFinh/δFcon)×100].

HCV RNA levels = conditions: cited from earlier work
HCV = conditions: combination therapy; cited from earlier work

| Compound | EC50 ([1]; read-out: EC50 1b (class)) [µM] | EC50 ([1]; read-out: EC50 (uM) 1b) [µM] | further results |
| --- | --- | --- | --- |
| CNC(=O)c1c(-c2ccc(F)cc2)oc2cc3c(cc12)-c1cc(cc(C(=O)NC(C)(C)C)c1)NC(=O)OCCOCCOC(=O)N3 [Compound 1055] | > 1 |  |  |
| CNC(=O)c1c(-c2ccc(F)cc2)oc2cc3c(cc12)-c1cc(cc(C(=O)NC(C)(C)C)c1)NC(=O)OCCOC(=O)N3 [Compound 1054] | > 1 |  |  |
| CNC(=O)c1c(-c2ccc(F)cc2)oc2cc3c(cc12)-c1cc(cc(C(=O)NC(C)(C)C)c1)NC(=S)NCCCCNC(=S)N3 [Compound 1057] | > 1 |  |  |
| CNC(=O)c1c(-c2ccc(F)cc2)oc2cc(N(CCO)S(C)(=O)=O)c(C3CC3)cc12 [HCV-796] |  |  | hepatic toxicity (HCV RNA levels; extended dosing of the combination regimens): hepatic toxicity observed; HCV RNA levels in patients (HCV RNA levels; patients, single agent or combined with interferon and ribavirin): reduce HCV RNA levels |
| CNC(=O)c1c(-c2ccc(F)cc2)oc2cc3c(cc12)-c1cc(cc(C(=O)NC(C)(C)C)c1)NC(=O)OCCOCCOCCOC(=O)N3 [Compound 1056] | > 1 | 8.34 |  |
| CNC(=O)c1c(-c2ccc(F)cc2)oc2cc3c(cc12)-c1cc(C(=O)NC(C)(C)C)cc(c1)N(S(C)(=O)=O)CCc1ccc(cc1)CCN3S(C)(=O)=O [Compound 1006] | > 1 | 1.21 |  |
| CNC(=O)c1c(-c2ccc(F)cc2)oc2cc3c(cc12)-c1cc(C(=O)NC(C)(C)C)cc(c1)N(S(C)(=O)=O)CCCCCCN3S(C)(=O)=O [Compound 1003] | 0.1 to 1 |  |  |
| CNC(=O)c1c(-c2ccc(F)cc2)oc2cc3c(cc12)-c1cc(C(=O)NC(C)(C)C)cc(c1)N(S(C)(=O)=O)CCCCCCCCN3S(C)(=O)=O [Compound 1005] | 0.1 to 1 |  |  |
| alpha-interferon and ribavirin |  |  | sustained efficacy (HCV): 40 % of patients |
| CNC(=O)c1c(-c2ccc(F)cc2)oc2cc3c(cc12)-c1cc(cc(C(=O)NC(C)(C)C)c1)NC(=O)CCCCCCCCCCC(=O)N3 [Compound 1053] | 0.1 to 1 |  |  |
| CNC(=O)c1c(-c2ccc(F)cc2)oc2cc3c(cc12)-c1cc(C(=O)NC(C)(C)C)cc(c1)N(S(C)(=O)=O)CCCCCCCN3S(C)(=O)=O [Compound 1004] | < 0.1 | 0.0477 |  |
| CNC(=O)c1c(-c2ccc(F)cc2)oc2cc3c(cc12)-c1cc(cc(C(=O)NC(C)(C)C)c1)NC(=O)CCCCC(=O)N3 [Compound 1051] | > 1 |  |  |
| CNC(=O)c1c(-c2ccc(F)cc2)oc2cc3c(cc12)-c1cc(C(=O)NC(C)(C)C)cc(c1)N(S(C)(=O)=O)CCCCCN3S(C)(=O)=O [Compound 1002] | 0.1 to 1 |  |  |
| CNC(=O)c1c(-c2ccc(F)cc2)oc2cc3c(cc12)-c1cc(cc(C(=O)NC(C)(C)C)c1)NC(=O)CCCCCCCCC(=O)N3 [Compound 1052] | 0.1 to 1 | 0.789 |  |
| CNC(=O)c1c(-c2ccc(F)cc2)oc2cc3c(cc12)-c1cc(C(=O)NC(C)(C)C)cc(c1)N(S(C)(=O)=O)CCCCN3S(C)(=O)=O [Compound 1001] | 0.1 to 1 | 0.171 |  |
| CNC(=O)c1c(-c2ccc(F)cc2)oc2cc3c(cc12)-c1cc(cc(C(=O)NC(C)(C)C)c1)NC(=S)NCCCCCCCCNC(=S)N3 [Compound 1058] | > 1 |  |  |
